According to patent publication US20150367034A1, “CREATION OF THREE-DIMENSIONAL SYNTHETIC TISSUE FROM PLURIPOTENT STEM CELL-DERIVED CELLS, AND OSTEOCHONDRAL REGENERATION TREATMENT USING SAID SYNTHETIC TISSUE” (OSAKA UNIVERSITY, priority 2013, published 2015):

Legend:
ES-MSCs = test: Volume, weight and hydroxyproline of TEC from ES-MSCs with or without ascorbic acid 2-phosphate; assay type: cell-based, rabbit; conditions: 0.2 mM added versus non-added; FIG. 3
Procedure: The protocol thereof is disclosed below.
ES-MSCs were inoculated at a TEC creation concentration (1.52×10^5 cells/well) in each well of a 12 well plate to create a TEC. A medium was created by separating conventional 10% FBS-containing DMEM for TEC creation into a 0.2 mM ascorbic acid added group (n=6) and non-added group (n=6). Three of each group were used for weight/volume measurements and the rest of the three were used in hydroxyproline measurements. For hydroxyproline, the following kit was used (Hydroxyproline Assay Kit Cat#K555-100; Lot#60855, BioVision), where the measurements were taken in accordance with the protocol on the package insert.
For the TEC made from 0.125×10^6, 0.25×10^6, 0.5×10^6, 1×10^6, 2×10^6, 4×10^6, 8×10^6, or 16×10^6 cells/well in a 6 well plate which was cultured over 12 days, detached, and allowed to undergo self-contraction, the volume was measured with a plethysmometer (model TK-101CMP; UNICOM, Chiba, Japan), and the weight was measured with a scale (Ando W, Tateishi K, Katakai D, Hart D A, Higuchi C, Nakata K, et al., Tissue Eng Part A 2008:14:2041-2049). 4 samples were evaluated at each cell density. In short, a plethysmometer is a minute volume controlled measuring device that is specially designed for accurate measurement. A plethysmometer consists of Perspex cells filled with water. A transducer records a small difference in the water level caused by a change in volume. […] The weight was measured with a common scale (METTLER TOLEDO AG204, Mettler-Toledo International Inc., Max210gd=0.1 mg, METTLER TOLEDO AG204 (Mettler-Toledo International Inc.)) in a laboratory […]. Measurements were taken in accordance with the protocol on the package insert.

Synovial cells = test: Extracellular matrix formation and collagen content (hydroxyproline) of synovial cell synthetic tissue; assay type: cell-based; conditions: pig synovial cells
Procedure: Synovial cells were collected from a knee joint of a pig (LWD ternary hybrid, 2-3 months old upon removal of cells), followed by treatment with collagenase. The cells were cultured and subcultured in a 10% fetal bovine serum+High Glucose-DMEM medium (fetal bovine serum available from HyClone, DMEM was obtained from GIBCO). It has been reported that 10th passage synovial cells still have pluripotency. Although cells of 10 or less passages were used in this production example, it is understood that cells of more than 10 passages may be used depending on the application. Autotransplantation was performed for actual human implantation, but it was necessary to secure a sufficient number of cells and to culture the cells for a short period of time so as to reduce the risk of infection or the like. Synovial cells (4.0×10^5) were cultured in 0.1-0.2 ml/cm^2 of 10% FBS-DMEM medium in a 35-mm dish, 60-mm dish, 100-mm dish, 150-mm dish, 500-m dish, 6-well culture dish, 12-well culture dish, or 24-well culture dish (BD Biosciences, cell culture dish and multiwell cell culture plate). In this case, ascorbic acid was added. […] In order to determine the collagen concentration, the collagen content was measured. […]

## O=C1O[C@H]([C@@H](O)CO)C(O)=C1OP(=O)(O)O [ascorbic acid 2-phosphate]
ES-MSCs
  hydroxyproline generation amount of TEC: significantly increased
  volume of TEC: significantly increased
  weight of TEC: significantly increased
Synovial cells; 0.1 mM or more added
  production of collagen (amount of hydroxyproline): significantly promoted
Synovial cells; added at a concentration of 0.1 mM or more
  formation of an extracellular matrix: promoted
